Measured values as given in patent US6242482A, “Prostaglandin compounds and derivatives thereof, compositions containing the same and method of using the same for the treatment of congestive heart failure” (priority 2000, dated 2001).
Where “and” joins values, the source holds several entries; their conditions need not be identical. Equal entries are not always repeated. Entries after “also recorded” stand apart in the source; their conditions may differ. Where two headings read alike, the source gives them in different places.

What was measured:
[1] = test system: mean arterial pressure and heart rate of anesthetized rats; assay: Systemic hemodynamic effects, intravenous, anesthetized rats (Example 9); assay type: in vivo, rat (male Wistar)
Protocol: Among other effects, lowering of the blood pressure inside the blood vessels is beneficial for the treatment of congestive heart failure by reducing the vascular resistance of the blood flow which substantially reduces the work load imposed on the heart. […] This study involved the use of male Wistar rats anaesthetized with thiopentone sodium ([…]®, 120 mg kg^-1 i.p.). The trachea was cannulated to facilitate breathing.

[2] = test system: Human Platelet Aggregation (collagen-induced); assay: Anti-aggregatory response after incubation with aqueous vehicle (Example 8); assay type: cell-based; conditions: up to 4 hours at 37° C
Protocol: (§1) Blood from healthy human volunteers who had not taken any medicine for at least 14 days was collected by venopuncture into 3.15% (w/v) tri-sodium citrate (9:1 v/v). The blood was centrifuged at 800 g for 15 minutes to produce PRP. The PRP was further centrifuged at 12,000 g for 1 minute to produce PPP. A total of 12 volunteers donated blood for the study.
(§2) Platelet aggregation was studied using a dual channel Payton aggregometer calibrated with PRP (0%) and PPP (100%) with respect to the degree of light transmission. Aliquots of PRP (500 μl) were added to siliconized cuvettes, stirred (1000 revs/min) and warmed to 37° C. The platelets were incubated for 1 minute to establish a stable baseline prior to investigation. A submaximal concentration of the aggregating agent collagen (1 μg/ml) was added to the PRP and the platelet aggregation was monitored as the increase in light transmission observed over a 4 minute period.
(§3) After the incubation period, an aliquot of the PPP or aqueous vehicle (50 μl) was added to fresh PRP (450 μl) for determination of anti-platelet activity. This experiment was repeated using PPP from at least three human volunteers for each compound.

[3] = test system: Human Platelet Aggregation (collagen-induced); assay: Anti-aggregatory response after incubation with PPP (Example 8); assay type: cell-based
Protocol: as §1, §2, §3

[4] = test system: Human Platelet Aggregation (collagen-induced); assay: Anti-aggregatory activity, 1 min incubation with PRP, collagen-induced (Example 8); assay type: cell-based; conditions: 1 minute with PRP
Protocol: as §1, §2
The percentage inhibition of the platelet aggregation was calculated using the peak increase in light transmission observed over the 4 minute period following addition of collagen, as compared to that of control. This experiment was repeated using PRP from at least three human volunteers for each compound under study.

[5] = test system: mean arterial pressure and heart rate of anesthetized rats; conditions: for Time of second Δmax (superscript) / Time of Δmax (superscript) / t1/2 / Δmax (Mean Arterial Pressure) / Δmax, second value in parentheses: Table 5; for Mean Arterial Pressure: b338-b348 = 0,1,5,10,15,30,60,120,180,240,360 min
Protocol: Male Wistar rats (250-330 g) were anesthetized with thiopentone sodium (INTRAVAL®, 120 mg/kg i.p.). The trachea was cannulated to facilitate respiration. The right carotid artery was cannulated and connected to a pressure transducer (Spectramed P23XL), for the measurement of mean arterial pressure (MAP) and heart rate (HR) which were continuously recorded on a 4-channel Grass 7D polygraph recorder (Grass, Mass., U.S.A.). Body temperature was maintained at 37±1°C. by means of a rectal probe thermometer attached to a homeothermic blanket control unit (Harvard Apparatus Ltd.).

[6] = background; cited from earlier work

CCCCCC(CCC1C(OC(C)=O)CC2Cc3c(cccc3OCC(=O)O)CC21)OC(C)=O (stereo not drawn) [Compound 4, Compound X Diacetate]
effective life of the fall in MAP ([1]; 1 mg/kg i.v.): about 110 minutes
maximum fall in MAP ([1]; 1 mg/kg i.v.): about 30 mm Hg
time of maximum fall in MAP ([1]; 1 mg/kg i.v.): 30 min
effective life of the fall in MAP ([1]; comparison of Compound 4 with Compound X (1 mg/kg i.v.)): over 90 minutes
fall in MAP ([1]; i.v., Compound X 1 mg/kg, Compound 4 1-10 mg/kg, others 3-30 mg/kg): rapid, dose-related fall in MAP; also recorded: rapid and substantial falls in MAP
effect of incubation with aqueous vehicle/saline/buffer on anti-platelet activity [2]: This effect was also observed during incubation of the compound in saline
IC50 ([3]; after 15 minutes in PPP): 5 ± 0.2 µg/mL
increase in anti-platelet activity ([3]; after 15 minutes in PPP): ~10 fold
increase in activity on incubation with plasma or aqueous vehicle ([3]; initial ten (10) minute period, plasma or aqueous vehicle): ~10 fold
effect of incubation with PPP on anti-platelet activity ([3]; up to 4 hours at 37° C): no further increase in activity; also recorded: this increase in activity was no greater after four (4) hours of incubation
inhibiting aggregation by 50% concentration (IC50) [4]: 68 ± 2 µg/mL
inhibition of platelet aggregation, concentration dependence [4]: concentration-dependent inhibition of platelet aggregation
inhibition of aggregation response at highest concentrations ([4]; X 30 and 100 ng/ml, 4 300 μg/ml, 6 3 mg/ml, 7 10 mg/ml): completely inhibited the aggregation response
effective life of the fall in MAP ([5]; 1 mg/kg s.c.): > 300 min
maximum fall in MAP ([5]; 1 mg/kg s.c.): about 26 mm Hg
time of maximum fall in MAP ([5]; 1 mg/kg s.c.): 60 min
Time of second Δmax (superscript) ([5]; 1 mg/kg s.c.): 210 min
Time of Δmax (superscript) ([5]; 1 mg/kg s.c.): 60 min
t1/2 ([5]; 1 mg/kg s.c.): > 300 min
Δmax (Mean Arterial Pressure) ([5]; 1 mg/kg s.c.): 26 ± 6 mm Hg
Δmax, second value in parentheses ([5]; 1 mg/kg s.c.): 28 ± 7 mm Hg
Mean Arterial Pressure ([5]; 1 mg/kg s.c.): 87 ± 3 mm Hg and 94 ± 3 mm Hg
another fall in MAP ([5]; 1 mg/kg s.c., second fall): 28 mm Hg
time of another fall in MAP ([5]; 1 mg/kg s.c., second fall): 210 min
effective life of the fall in MAP ([5]; 3 mg/kg s.c.): > 330 min
Time of Δmax (superscript) ([5]; 3 mg/kg s.c.): 30 min
t1/2 ([5]; 3 mg/kg s.c.): > 330 min
Δmax (Mean Arterial Pressure) ([5]; 3 mg/kg s.c.): 41 mm Hg
Mean Arterial Pressure ([5]; 3 mg/kg s.c.): 87 ± 4 mm Hg
effective life of the fall in MAP ([5]; 10 mg/kg s.c.): > 300 min
Time of second Δmax (superscript) ([5]; 10 mg/kg s.c.): 150 min
Time of Δmax (superscript) ([5]; 10 mg/kg s.c.): 60 min
t1/2 ([5]; 10 mg/kg s.c.): > 300 min
Δmax (Mean Arterial Pressure) ([5]; 10 mg/kg s.c.): 45 ± 5 mm Hg
Δmax, second value in parentheses ([5]; 10 mg/kg s.c.): 48 ± 6 mm Hg

CCCCC[C@H](O)/C=C/[C@@H]1[C@H]2C/C(=C/CCCC(=O)O)O[C@H]2C[C@H]1O [prostacyclin]
effective life [6]: less than six
